Source: patent publication US20130065883A1 (Centro Nacional de Investigaceiones Oncologicas (CNIO), priority 2010, published 2013)
Read-outs that look alike come from different tables or passages of the source.

What was measured:
[1] = Metabolic stability assay; type: in vitro ADME; conditions: percentage metabolic stability in human liver microsomes
Description: The metabolic stability assay was performed in Wuxi. 1 μM, 15 min. The kinase selectivity testing was performed in ProQinase GmbH, Germany.

panel of 24 kinases = assay: Kinase selectivity testing (percentage inhibition of 24 kinases at 1 μM); type: biochemical; conditions: proquinase; for % inhibiton at 1 uM CK1 Alpha 1: CK1 Alpha 1, 1 uM; for % inhibiton at 1 uM FGFR1: FGFR1, 1 uM; for % inhibiton at 1 uM JAK2: JAK2, 1 uM; for % inhibiton at 1 uM MEK1: MEK1, 1 uM; for % inhibiton at 1 uM RPS5 KA1: RPS5 KA1, 1 uM; for % inhibiton at 1 uM SGK1: SGK1, 1 uM; for % inhibiton at 1 uM AKT2: AKT2, 1 uM; for % inhibiton at 1 uM CHK1: CHK1, 1 uM; for % inhibiton at 1 uM PAK1: PAK1, 1 uM; for % inhibiton at 1 uM PDK1: PDK1, 1 uM
[2] = tested on: H1299 cells overexpressing Pim1 (H1299Pim1); assay: BAD S112 phosphorylation inhibition assay (In Cell ELISA); type: cell-based; conditions: Homo sapiens, NCI-H1299, inhibition of Bad-phosphorylation, read-out: Cell assay BAD_P H1299 PIM1
tumor cell lines = assay: Combination assay (MTT in vitro cell proliferation, combination index); type: cell-based; conditions: Homo sapiens, NCI-H23, NCIH23, non small cell lung carcinoma; read-out: Pim Inh EC50
PIM-1 = target: T1, PIM-1 (Homo sapiens, UniProt P11309); assay: PIM-1 biochemical assay (ADP Hunter); conditions: read-out: PIM1 IC50;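 further: recombinant human PIM-1 carrying a C-terminal His tag, kinase activity quantified via ADP formed as the direct enzymatic product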
T1 construct: histidine tag (C); made in house
T1 sequence (P11309 whole entry): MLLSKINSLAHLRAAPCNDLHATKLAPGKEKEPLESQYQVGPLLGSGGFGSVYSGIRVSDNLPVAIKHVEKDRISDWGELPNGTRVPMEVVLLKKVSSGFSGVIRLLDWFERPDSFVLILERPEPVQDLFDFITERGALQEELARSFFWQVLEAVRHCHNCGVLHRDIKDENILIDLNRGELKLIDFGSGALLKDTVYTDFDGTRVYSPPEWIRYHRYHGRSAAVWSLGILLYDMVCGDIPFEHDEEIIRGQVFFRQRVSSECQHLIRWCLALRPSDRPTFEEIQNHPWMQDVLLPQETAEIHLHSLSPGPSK

FLT3 = target: T2, FLT3 (Homo sapiens, UniProt P36888); assay: FLT3 biochemical assay (ADP Hunter);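 further: FLT3 enzymatic activity quantified through the ADP produced by the kinase reaction, detected with an ADP Hunter readout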
T2 sequence (P36888 27-993): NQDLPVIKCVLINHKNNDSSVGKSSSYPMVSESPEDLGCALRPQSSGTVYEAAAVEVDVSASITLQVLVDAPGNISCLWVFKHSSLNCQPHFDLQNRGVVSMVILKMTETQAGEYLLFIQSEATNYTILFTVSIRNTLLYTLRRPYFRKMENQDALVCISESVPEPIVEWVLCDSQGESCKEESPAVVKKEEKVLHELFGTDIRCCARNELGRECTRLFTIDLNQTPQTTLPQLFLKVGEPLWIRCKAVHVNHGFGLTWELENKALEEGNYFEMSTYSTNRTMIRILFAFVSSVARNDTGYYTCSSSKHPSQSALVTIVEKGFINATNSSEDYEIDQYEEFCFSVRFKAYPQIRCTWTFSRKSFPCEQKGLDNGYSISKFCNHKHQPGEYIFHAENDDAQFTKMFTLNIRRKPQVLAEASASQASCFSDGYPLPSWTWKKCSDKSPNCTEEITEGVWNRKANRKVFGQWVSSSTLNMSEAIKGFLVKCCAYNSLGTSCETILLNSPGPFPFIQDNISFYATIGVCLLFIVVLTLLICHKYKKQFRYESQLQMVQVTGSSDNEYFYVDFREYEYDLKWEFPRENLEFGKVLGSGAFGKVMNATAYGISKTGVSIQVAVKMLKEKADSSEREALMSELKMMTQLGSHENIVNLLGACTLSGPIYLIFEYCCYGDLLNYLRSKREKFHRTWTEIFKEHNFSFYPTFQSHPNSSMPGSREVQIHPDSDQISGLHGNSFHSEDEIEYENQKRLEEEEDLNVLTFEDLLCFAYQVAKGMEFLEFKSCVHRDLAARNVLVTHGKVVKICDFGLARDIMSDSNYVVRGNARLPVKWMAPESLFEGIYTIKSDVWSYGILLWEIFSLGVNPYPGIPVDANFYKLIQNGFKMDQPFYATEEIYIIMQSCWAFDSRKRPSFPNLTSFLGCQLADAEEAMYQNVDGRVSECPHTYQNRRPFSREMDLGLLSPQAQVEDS

PIM-2 = target: T3, PIM-2 (Homo sapiens, UniProt Q9P1W9); assay: PIM-2 biochemical assay (ADP Hunter); conditions: semi-quantitative class; read-out: PIM2 IC50;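 further: recombinant N-terminally His-tagged human enzyme, kinase activity quantified by detection of ADP formed as the direct reaction product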
T3 construct: histidine tag (N); made in house
T3 sequence (Q9P1W9 whole entry): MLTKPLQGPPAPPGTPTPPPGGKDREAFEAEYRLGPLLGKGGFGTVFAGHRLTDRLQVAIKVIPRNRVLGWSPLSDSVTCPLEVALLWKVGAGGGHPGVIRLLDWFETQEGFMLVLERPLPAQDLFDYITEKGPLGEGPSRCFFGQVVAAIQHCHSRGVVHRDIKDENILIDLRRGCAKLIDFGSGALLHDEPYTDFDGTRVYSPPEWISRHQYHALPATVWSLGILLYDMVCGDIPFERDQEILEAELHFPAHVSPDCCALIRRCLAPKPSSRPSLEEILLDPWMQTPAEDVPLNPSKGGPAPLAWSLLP

PIM-3 = target: T4, PIM-3 (Homo sapiens, UniProt Q86V86); assay: PIM-3 biochemical assay (ADP Hunter); conditions: read-out: PIM3 IC50;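 further: kinase activity read out as the quantity of ADP generated by the enzyme reaction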
T4 construct: purchased Millipore 14-738

[3] = actual IC50 value in parentheses

OC1CCC(Nc2ccc3nnn(-c4cccc(OC(F)(F)F)c4)c3n2)CC1 (stereo in doubt) [2-47]
Stability in HLM [1]: 43.6% | % inhibiton at 1 uM B_RAF V600E (panel of 24 kinases): 6% | % inhibiton at 1 uM CK1 Alpha 1 (panel of 24 kinases): 2% | % inhibiton at 1 uM DYRK 1A (panel of 24 kinases): 3% | % inhibiton at 1 uM EGF_R (panel of 24 kinases): 9% | % inhibiton at 1 uM FAK (panel of 24 kinases): 6% | % inhibiton at 1 uM FGFR1 (panel of 24 kinases): 0% | % inhibiton at 1 uM IGF1_R (panel of 24 kinases): 8% | % inhibiton at 1 uM IKK BETA (panel of 24 kinases): 4% | % inhibiton at 1 uM INS_R (panel of 24 kinases): 7% | % inhibiton at 1 uM JAK2 (panel of 24 kinases): 15% | % inhibiton at 1 uM KIT (panel of 24 kinases): 2% | % inhibiton at 1 uM MEK1 (panel of 24 kinases): 0% | % inhibiton at 1 uM MET (panel of 24 kinases): 0% | % inhibiton at 1 uM PDGFR Alpha (panel of 24 kinases): 0% | % inhibiton at 1 uM RPS5 KA1 (panel of 24 kinases): 0% | % inhibiton at 1 uM SGK1 (panel of 24 kinases): 3%

FC(F)(F)Oc1cccc(-n2nnc3cc(Cl)c(NCC4CCNCC4)nc32)c1 [2-54]
EC50 [2]: 599 nM | EC50 (tumor cell lines): 5000 nM | Stability in HLM [1]: 93.95% | % inhibiton at 1 uM B_RAF V600E (panel of 24 kinases): 7% | % inhibiton at 1 uM CK1 Alpha 1 (panel of 24 kinases): 6% | % inhibiton at 1 uM DYRK 1A (panel of 24 kinases): 30% | % inhibiton at 1 uM EGF_R (panel of 24 kinases): 18% | % inhibiton at 1 uM FAK (panel of 24 kinases): 28% | % inhibiton at 1 uM FGFR1 (panel of 24 kinases): 32% | % inhibiton at 1 uM IGF1_R (panel of 24 kinases): 26% | % inhibiton at 1 uM IKK BETA (panel of 24 kinases): 17% | % inhibiton at 1 uM INS_R (panel of 24 kinases): 16% | % inhibiton at 1 uM JAK2 (panel of 24 kinases): 15% | % inhibiton at 1 uM KIT (panel of 24 kinases): 34% | % inhibiton at 1 uM MEK1 (panel of 24 kinases): 0% | % inhibiton at 1 uM MET (panel of 24 kinases): 19% | % inhibiton at 1 uM PDGFR Alpha (panel of 24 kinases): 23% | % inhibiton at 1 uM RPS5 KA1 (panel of 24 kinases): 8% | % inhibiton at 1 uM SGK1 (panel of 24 kinases): 7%

FC(F)(F)Oc1cccc(-n2nnc3ccc(N4CCCC5(CCCN5)CC4)nc32)c1 (centres unmarked) [2-65]
IC50 (PIM-1; [3]): 2 nM | IC50 (PIM-1; semi-quantitative class): < 100 nM | Stability in HLM [1]: 88.9% | IC50 (FLT3; [3]): 28 nM | IC50 (FLT3; semi-quantitative class): < 100 nM | % inhibiton at 1 uM AKT2 (panel of 24 kinases): 0% | % inhibiton at 1 uM B_RAF V600E (panel of 24 kinases): 3% | % inhibiton at 1 uM CDK8 CYCC (panel of 24 kinases): 2% | % inhibiton at 1 uM CHK1 (panel of 24 kinases): 7% | % inhibiton at 1 uM CK1 Alpha 1 (panel of 24 kinases): 0% | % inhibiton at 1 uM DYRK 1A (panel of 24 kinases): 12% | % inhibiton at 1 uM EGF_R (panel of 24 kinases): 12% | % inhibiton at 1 uM FAK (panel of 24 kinases): 31% | % inhibiton at 1 uM FGFR1 (panel of 24 kinases): 22% | % inhibiton at 1 uM IGF1_R (panel of 24 kinases): 21% | % inhibiton at 1 uM IKK BETA (panel of 24 kinases): 0% | % inhibiton at 1 uM INS_R (panel of 24 kinases): 12% | % inhibiton at 1 uM JAK2 (panel of 24 kinases): 8% | % inhibiton at 1 uM KIT (panel of 24 kinases): 63% | % inhibiton at 1 uM MEK1 (panel of 24 kinases): 13% | % inhibiton at 1 uM MET (panel of 24 kinases): 11% | % inhibiton at 1 uM PAK1 (panel of 24 kinases): 0% | % inhibiton at 1 uM PDGFR Alpha (panel of 24 kinases): 57% | % inhibiton at 1 uM PDK1 (panel of 24 kinases): 0% | % inhibiton at 1 uM RPS5 KA1 (panel of 24 kinases): 10% | % inhibiton at 1 uM SGK1 (panel of 24 kinases): 0% | % inhibiton at 1 uM SRC (panel of 24 kinases): 33% | IC50 (PIM-2): 100 to 1000 nM | IC50 (PIM-3; [3]): 6 nM | IC50 (PIM-3; semi-quantitative class): < 100 nM

FC(F)(F)Oc1cccc(-n2nnc3ccc(NC4CC5(CCNCC5)C4)nc32)c1 [2-66]
Stability in HLM [1]: 91.1% | % inhibiton at 1 uM AKT2 (panel of 24 kinases): 0% | % inhibiton at 1 uM B_RAF V600E (panel of 24 kinases): 15% | % inhibiton at 1 uM CDK8 CYCC (panel of 24 kinases): 3% | % inhibiton at 1 uM CHK1 (panel of 24 kinases): 13% | % inhibiton at 1 uM CK1 Alpha 1 (panel of 24 kinases): 0% | % inhibiton at 1 uM DYRK 1A (panel of 24 kinases): 30% | % inhibiton at 1 uM EGF_R (panel of 24 kinases): 18% | % inhibiton at 1 uM FAK (panel of 24 kinases): 19% | % inhibiton at 1 uM FGFR1 (panel of 24 kinases): 4% | % inhibiton at 1 uM IGF1_R (panel of 24 kinases): 16% | % inhibiton at 1 uM IKK BETA (panel of 24 kinases): 5% | % inhibiton at 1 uM INS_R (panel of 24 kinases): 7% | % inhibiton at 1 uM JAK2 (panel of 24 kinases): 3% | % inhibiton at 1 uM KIT (panel of 24 kinases): 30% | % inhibiton at 1 uM MEK1 (panel of 24 kinases): 0% | % inhibiton at 1 uM MET (panel of 24 kinases): 3% | % inhibiton at 1 uM PAK1 (panel of 24 kinases): 11% | % inhibiton at 1 uM PDGFR Alpha (panel of 24 kinases): 12% | % inhibiton at 1 uM PDK1 (panel of 24 kinases): 4% | % inhibiton at 1 uM RPS5 KA1 (panel of 24 kinases): 19% | % inhibiton at 1 uM SGK1 (panel of 24 kinases): 2% | % inhibiton at 1 uM SRC (panel of 24 kinases): 28%
